According to patent US20220289679A1, “HETEROCYCLIC COMPOUND” (Takeda Pharmaceutical Company Limited, priority 2019, published 2022):

Biological target: T1, human GCS (glucosylceramide synthase) (Homo sapiens, UniProt Q16739)
T1 construct: made in house; host or cells: Expi293F cells (transient expression; microsome fraction)
T1 sequence (Q16739 1-394): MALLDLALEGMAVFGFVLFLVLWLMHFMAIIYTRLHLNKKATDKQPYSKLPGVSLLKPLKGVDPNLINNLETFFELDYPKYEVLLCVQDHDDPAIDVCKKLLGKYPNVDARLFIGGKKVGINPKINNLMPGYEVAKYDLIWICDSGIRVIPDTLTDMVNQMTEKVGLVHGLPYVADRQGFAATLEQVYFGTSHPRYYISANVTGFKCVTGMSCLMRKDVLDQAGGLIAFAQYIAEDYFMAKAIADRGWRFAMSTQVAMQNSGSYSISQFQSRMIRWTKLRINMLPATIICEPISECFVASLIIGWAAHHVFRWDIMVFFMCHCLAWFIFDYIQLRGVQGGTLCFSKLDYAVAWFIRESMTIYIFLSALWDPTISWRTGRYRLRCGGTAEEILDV
Assay: Glucosylceramide Synthase (GCS) Assay
Type: biochemical
Conditions: test compound 10 μM; microsome fraction of Expi293F cells expressing human GCS; 1.7 μM UDP-glucose, 3 μM C8 ceramide; room temperature 60 min; C8 glucosylceramide by Rapidfire MS/MS; read-out: GCS enzyme inhibitory rate at 10 μM (%)
Protocol: In enzyme assay, a microsome fraction obtained by transient expression by Expi293F™ cells (catalog number: A14527, Thermo Fisher Scientific) was used as a glucosylceramide synthase source. Liposomal C8 ceramide and UDP-glucose were used as substrates. For each substrate concentration, 1.7 μM UDP-glucose, which is equal to the Km value, and 3 μM C8 ceramide were used. After the enzymatic reaction, the analysis was performed with Rapidfire MS/MS (API-4000™, SCIEX), and C8 glucosylceramide was quantified to evaluate the inhibitory activity of the test compound against glucosylceramide synthase activity.
PcDNA3.3TOPO vector (catalog number: K830001, Thermo Fisher Scientific) into which the human GCS gene was inserted was introduced into Expi293F™ Cells (catalog number: A14527, Thermo Fisher Scientific) by using ExpiFectamine™ 293 Transfection Kit (catalog number: A14525, Thermo Fisher Scientific). The cultured cells were dissolved in D-PBS (catalog number: 048-29805, Fuji Film Wako Pure Chemical Industries, Ltd.) containing 1 mM PMSF, and the solution was allowed to stand on ice for 30 minutes, and then subjected to cell disruption (homogenized). The disruption solution was centrifuged at 10,000×g for 20 minutes at 4° C., and the obtained supernatant was centrifuged at 142,400×g for 60 minutes at 4° C. The obtained precipitate was resuspended in a D-PBS solution containing 1 mM PMSF, and homogenized again to prepare as a microsome fraction. Protein quantification was performed by the CBB method.
A 1 mM compound solution prepared by dissolving the test compound in DMSO was added to a 384-well plate by 100 nL so that the final concentration of the test compound was 10 μM. Next, a substrate solution consisting of 3.4 μM UDP-glucose and 6 μM C8 ceramide was added by 5 μL, followed by an enzyme solution consisting of a 25 μg/mL microsome fraction by 5 μL. C8 ceramide was prepared from liposomes composed of 15 mol % C8 ceramide and 85 mol % dioleoyl phosphatidylcholine (1,2-dioleoyl-sn-glycero-3-phosphocholine: DOPC). The enzymatic reaction was carried out in a solution consisting of 20 mM tris-hydrochloric acid buffer (pH 7.5), 0.01% Tween 20, 0.01% bovine serum albumin and 1 mM dithiothreitol at room temperature for 60 min. Then, a solution consisting of 75% isopropanol and 1% formic acid containing 0.25 μM N-Octadecanoyl-D35-psichosine (catalog number: 1914, Matreya) as an internal standard substance was added by 60 μL to stop the enzymatic reaction. 5 μL of the centrifugal supernatant of the obtained reaction product was analyzed by Rapidfire MS/MS (Agilent Technologies) using API-4000™ (SCIEX), and the C8 glucosylceramide was quantified to evaluate the inhibitory activity of the test compound against the glucosylceramide synthase activity. The inhibitory activity of the test compound was evaluated when the C8 glucosylceramide level in the enzyme-free solution was considered as 100% inhibitory and the enzyme activity of the DMSO group in the absence of the compound was considered as 0% inhibitory.

| Structure (SMILES) | inhibition at 10 µM |
| --- | --- |
| CC(C)(O)c1ccc(NC(=O)c2cccn(-c3ncncc3OCC(F)(F)F)c2=O)cn1 [Example 119, N-[6-(2-hydroxypropan-2-yl)pyridin-3-yl]-2-oxo-1-[5-(2,2,2-trifluoroethoxy)pyrimidin-4-yl]-1,2-dihydropyridine-3-carboxamide] | 74% |
| CC(C)(O)COc1cc(F)ccc1-n1cccc(C(=O)Nc2ccc(OCC(F)(F)F)nc2)c1=O [Example 67, 1-[4-fluoro-2-(2-hydroxy-2-methylpropoxy)phenyl]-2-oxo-N-[6-(2,2,2-trifluoroethoxy)pyridin-3-yl]-1,2-dihydropyridine-3-carboxamide] | 89% |
| COc1cc(F)ccc1-n1nccc(C(=O)Nc2ccc(Oc3ccccc3)cc2)c1=O [Example 18, 2-(4-fluoro-2-methoxyphenyl)-3-oxo-N-(4-phenoxyphenyl)-2,3-dihydropyridazine-4-carboxamide] | 76% |
| CC(C)(O)c1ccc(NC(=O)c2cccn(-c3ccc(F)cc3OCC(F)F)c2=O)cc1 [Example 102, 1-[2-(2,2-difluoroethoxy)-4-fluorophenyl]-N-[4-(2-hydroxypropan-2-yl)phenyl]-2-oxo-1,2-dihydropyridine-3-carboxamide] | 98% |
| CC(C)(O)Cc1ccc(NC(=O)c2cccn(-c3ccc(F)cc3OCC(F)(F)F)c2=O)cc1 [Example 61, 1-[4-fluoro-2-(2,2,2-trifluoroethoxy)phenyl]-N-[4-(2-hydroxy-2-methylpropyl)phenyl]-2-oxo-1,2-dihydropyridine-3-carboxamide] | 95% |
| COc1cc(F)ccc1-n1cccc(C(=O)Nc2ccc(C(F)(F)F)cc2)c1=O [Example 11, 1-(4-fluoro-2-methoxyphenyl)-2-oxo-N-[4-(trifluoromethyl)phenyl]-1,2-dihydropyridine-3-carboxamide] | 88% |
| CC(C)(O)c1ccc(NC(=O)c2cccn(-c3ccnnc3OCC(F)(F)F)c2=O)cc1 [Example 90, N-[4-(2-hydroxypropan-2-yl)phenyl]-2-oxo-1-[3-(2,2,2-trifluoroethoxy)pyridazin-4-yl]-1,2-dihydropyridine-3-carboxamide] | 90% |
| COc1cc(F)ccc1-n1cccc(C(=O)Nc2ccc(N3CCOCC3)cc2)c1=O [Example 19, 1-(4-fluoro-2-methoxyphenyl)-N-[4-(morpholin-4-yl)phenyl]-2-oxo-1,2-dihydropyridine-3-carboxamide] | 55% |
| CC(C)(C#N)c1ccc(NC(=O)c2cccn(-c3ccccc3OCC(F)(F)F)c2=O)cn1 [Example 88, N-[6-(2-cyanopropan-2-yl)pyridin-3-yl]-2-oxo-1-[2-(2,2,2-trifluoroethoxy)phenyl]-1,2-dihydropyridine-3-carboxamide] | 100% |
| N#CCc1ccc(NC(=O)c2cccn(-c3ccc(F)cc3OCC(F)(F)F)c2=O)cc1 [Example 57, N-[4-(cyanomethyl)phenyl]-1-[4-fluoro-2-(2,2,2-trifluoroethoxy)phenyl]-2-oxo-1,2-dihydropyridine-3-carboxamide] | 95% |
| O=C(Nc1ccc(Oc2ccccc2)cc1)c1cccn(-c2ccccc2N2CCOCC2)c1=O [Example 4, 1-[2-(morpholin-4-yl)phenyl]-2-oxo-N-(4-phenoxyphenyl)-1,2-dihydropyridine-3-carboxamide] | 93% |

Further lines, results first:

| inhibition at 10 µM | Structure (SMILES) |
| --- | --- |
| 100% | O=C(Nc1ccc(C(O)(C(F)F)C(F)F)cc1)c1cn(CC2COC2)nc(-c2ccccc2OCC(F)F)c1=O [Example 175, 6-[2-(2,2-difluoroethoxy)phenyl]-2-[(oxetan-3-yl)methyl]-5-oxo-N-[4-(1,1,3,3-tetrafluoro-2-hydroxypropan-2-yl)phenyl]-2,5-dihydropyridazine-4-carboxamide] |
| 100% | Cn1cc(C(=O)Nc2ccc(C(C)(C)C#N)cc2)c(=O)c(-c2ccccc2OCC(F)F)n1 [Example 172, N-[4-(2-cyanopropan-2-yl)phenyl]-6-[2-(2,2-difluoroethoxy)phenyl]-2-methyl-5-oxo-2,5-dihydropyridazine-4-carboxamide] |
| 74% | CC(C)(O)c1ccc(NC(=O)c2cccn(-c3cccnc3OCC(F)(F)F)c2=O)cn1 [Example 120, N-[6-(2-hydroxypropan-2-yl)pyridin-3-yl]-2-oxo-2′-(2,2,2-trifluoroethoxy)-2H-[1,3′-bipyridine]-3-carboxamide] |
| 100% | CC(C)(O)c1ccc(NC(=O)c2cn(C3CC3)nc(-c3ccccc3OCC(F)F)c2=O)cc1 [Example 169, 2-cyclopropyl-6-[2-(2,2-difluoroethoxy)phenyl]-N-[4-(2-hydroxypropan-2-yl)phenyl]-5-oxo-2,5-dihydropyridazine-4-carboxamide] |
| 100% | CC(C)(O)c1ccc(NC(=O)c2ccnn(-c3ccccc3OCC(F)F)c2=O)c(F)c1 [Example 147, 2-[2-(2,2-difluoroethoxy)phenyl]-N-[2-fluoro-4-(2-hydroxypropan-2-yl)phenyl]-3-oxo-2,3-dihydropyridazine-4-carboxamide] |
| 99% | CC(C)(O)c1ccc(NC(=O)c2cn(C3CCOC3)nc(-c3ccccc3OCC(F)F)c2=O)cc1 (racemic) [Example 193, rac-6-[2-(2,2-difluoroethoxy)phenyl]-N-[4-(2-hydroxypropan-2-yl)phenyl]-5-oxo-2-(oxolan-3-yl)-2,5-dihydropyridazine-4-carboxamide] |
| 100% | O=C(Nc1ccc(C(O)(C(F)F)C(F)F)cc1Cl)c1ccnn(-c2ccccc2OCC(F)F)c1=O [Example 160, N-[2-chloro-4-(1,1,3,3-tetrafluoro-2-hydroxypropan-2-yl)phenyl]-2-[2-(2,2-difluoroethoxy)phenyl]-3-oxo-2,3-dihydropyridazine-4-carboxamide] |
| 100% | Cn1cc(C(=O)Nc2ccc(C(C)(C)O)cc2)c(=O)c(-c2ccccc2OCC(F)(F)F)n1 [Example 166, N-[4-(2-hydroxypropan-2-yl)phenyl]-2-methyl-5-oxo-6-[2-(2,2,2-trifluoroethoxy)pheny]-2,5-dihydropyridazine-4-carboxamide] |
| 100% | CC(C)(O)c1ccc(NC(=O)c2cn(C3COC3)nc(-c3ccccc3OCC(F)F)c2=O)cc1 [Example 183] |
| 53% | COc1cc(C(C)(C)O)ccc1NC(=O)c1cc(C)nn(-c2ccccc2OCC(F)F)c1=O [Example 151, 2-[2-(2,2-difluoroethoxy)phenyl]-N-[4-(2-hydroxypropan-2-yl)-2-methoxyphenyl]-6-methyl-3-oxo-2,3-dihydropyridazine-4-carboxamide] |
| 94% | Cn1cc(C(=O)Nc2ccc(OCC(C)(C)O)cc2)c(=O)c(-c2ccccc2OCC(F)F)n1 [Example 164, 6-[2-(2,2-difluoroethoxy)phenyl]-N-[4-(2-hydroxy-2-methylpropoxy)phenyl]-2-methyl-5-oxo-2,5-dihydropyridazine-4-carboxamide] |
| 99% | CC(C)(O)c1ccc(NC(=O)c2cc(C(C)(C)O)nn(-c3ccccc3OCC(F)(F)F)c2=O)cc1 [Example 202, 6-(2-hydroxypropan-2-yl)-N-[4-(2-hydroxypropan-2-yl)phenyl]-3-oxo-2-[2-(2,2,2-trifluoroethoxy)phenyl]-2,3-dihydropyridazine-4-carboxamide] |
